level, % of control data for six compounds are collected here from ChEMBL document CHEMBL1240427, “Chemistry around imidazopyrazine and ibuprofen: discovery of novel fatty acid amide hydrolase (FAAH) inhibitors” (Eur J Med Chem, 2010).

The first assay has as its system Caco-2. As to the kind of experiment: Effect in human Caco-2 cells assessed as IL-1-beta-induced IL8 production relative to control at 50 uM after 24 hrs by ELISA. To be noted: Caco-2, 24 h.
With `CC(C)Cc1ccc(C(C)C(=O)/C=N/O)cc1` (configuration not stated), the level, % of control at 50 µM is 290%.

Regarding `N=c1c(-c2ccccc2)nc2c[nH]c(-c3ccc(O)cc3)cn1-2`, the level, % of control at 50 µM came to 56%.

As for `CC(C)Cc1ccc(C(C)C(=O)n2nnc3ccccc32)cc1` (configuration not stated), the level, % of control at 50 µM worked out at 76%.

Consider `CON(C)C(=O)C(C)c1ccc(CC(C)C)cc1` (configuration not stated), for which the level, % of control at 50 µM is 55%.

As to `Oc1ccc(-c2cn3c(O)c(-c4ccccc4)nc3cn2)cc1`, the level, % of control at 50 µM was found to be 65%.

`CC(C)Cc1ccc(C(C)C(=O)CCl)cc1` (configuration not stated): the level, % of control at 50 µM stood at 70%.

Another assay relates to Caco-2. The assay can be described thus: Effect in human Caco-2 cells assessed as IL-1-beta-induced IL8 production relative to control at 5 uM after 24 hrs by ELISA. To be noted: Caco-2, 24 h. In general terms: In an ELISA, binding on a coated surface is turned into a signal by an enzyme label.
On to `N=c1c(-c2ccccc2)nc2c[nH]c(-c3ccc(O)cc3)cn1-2`, for which the level, % of control at 5 µM came to 75%.
